Test system: uric acid value of mouse serum
Assay: Lowering of Uric Acid Value of Mouse Serum
Assay type: in vivo
Details: male ICR mice, 0.3 mg/kg into the stomach
Protocol: Lowering of Uric Acid Value of Mouse Serum
A sample suspended in 0.5% aqueous hydroxypropyl methyl cellulose (HPMC) solution was forcibly administered into the stomach of 4 to 6 week-old male ICR mice (4 per group) in a dose of 0.3 mg/kg using an oral sound probe. At 2 and 6 hours after the administration of the sample, mice were anesthetized with halothane. Blood samples were taken from both carotid arteries and the mice were exsanguinated. The blood was stood at room temperature for 20-30 minutes and centrifuged at 2000×g for 15 minutes to give serum. The uric acid value was measured using a uric acid measurement kit (manufactured by Wako Pure Chemicals Co.) by phosphotungstic acid method. The obtained values were applied to the following formula to give uric acid value decrease percentage at 2 and 6 hours after the administration of the sample.
Uric acid value decrease (%)=(1-average uric acid value of group administered with sample/average uric acid value of group administered with HPMC)×100

Oc1ncnc2[nH]ncc12 [allopurinol]
Uric acid value decrease (%) at 2 hours (2 hours after administration): 33%
Uric acid value decrease (%) at 6 hours (6 hours after administration): 14%
